Laboratory results as given in patent publication US5958947A, “DNA-affinic hypoxia selective cytotoxins” (priority 1996, dated 1999).
Values joined by “and” are separate entries in the source; they are usually repeats but may differ in a detail not shown here. Identical values can stand only once. “Also recorded” adds a separate entry of the source. Counter-ions that a name gives are not always drawn. Like-named read-outs stand apart in the source and are kept apart here.

Key:
[1] = Acute aerobic and hypoxic cytotoxicity (colony formation); type: cell-based, Chinese hamster; conditions: chinese hamster, aerobic v79 cells, aerobic, 1 hour, 37° C.; for IC50 at 1 h: V79 cells, 50% inhibition of clonogenicity
Experimental: (§1) Samples of V79 Chinese hamster lung cells used in the following experiments were prepared as follows. V79 cells, exponentially growing as monolayer cultures in RPMI 1640 medium (Mediatech) supplemented with 10% fetal calf serum, were trypsinized, centrifuged for 5 min, harvested, then suspended in 25 ml Erlenmeyer flasks fitted with rubber caps at 5×10^5 cells/ml (5 ml). Individual flasks either were shaken (100 rpm) at 37° C. under aerobic conditions or made hypoxic by gassing with a 95% N2 (nitrogen)/5% CO2 (carbon dioxide) humidified gas mixture for 1 hour.
(§2) To determine the fraction of surviving cells, samples were removed, diluted and plated to provide 2×10^2 to 2×10^4 cells/well on 60 mm Linbro multi-well plates (Flow Laboratories, McLean, Virginia). The plates were incubated at 37° C. for 6 days, stained with crystal violet and examined for colony formation. Colonies of 50 cells or greater were counted. Each plotted point in FIGS. 1 and 2 represent the mean of three or four replicate experiments.

[2] = test system: V79 Chinese hamster lung cells; test: as above; type: cell-based; conditions: for IC50: V79, 1 h, hypoxia, 50% inhibition of clonogenicity; for viability at 100 µM: 3.5 hours
Experimental: as §1, §2

[3] = Partition coefficient in octanol/water; type: physicochemical
Experimental: The partition coefficient of the hypoxia selective cytotoxins of the present invention were determined by the method of T. Fujita et al., J. Am. Chem. Soc., 86, 5175-5180 (1964), incorporated herein by reference.

calf thymus Topo I = target: T1, calf thymus Topo I (Bos taurus, UniProt F1MN93); test: Topoisomerase I interaction (relaxation of supercoiled DNA); type: biochemical; conditions: for IC100: 0.5 h; for IC50: Topo I inhibition (50%)-dose, Topo I-induced relaxation of supercoiled DNA
T1 construct: purchased TopoGEN, Inc., Columbus, Ohio; host or cells: calf thymus
T1 sequence (F1MN93 1-767): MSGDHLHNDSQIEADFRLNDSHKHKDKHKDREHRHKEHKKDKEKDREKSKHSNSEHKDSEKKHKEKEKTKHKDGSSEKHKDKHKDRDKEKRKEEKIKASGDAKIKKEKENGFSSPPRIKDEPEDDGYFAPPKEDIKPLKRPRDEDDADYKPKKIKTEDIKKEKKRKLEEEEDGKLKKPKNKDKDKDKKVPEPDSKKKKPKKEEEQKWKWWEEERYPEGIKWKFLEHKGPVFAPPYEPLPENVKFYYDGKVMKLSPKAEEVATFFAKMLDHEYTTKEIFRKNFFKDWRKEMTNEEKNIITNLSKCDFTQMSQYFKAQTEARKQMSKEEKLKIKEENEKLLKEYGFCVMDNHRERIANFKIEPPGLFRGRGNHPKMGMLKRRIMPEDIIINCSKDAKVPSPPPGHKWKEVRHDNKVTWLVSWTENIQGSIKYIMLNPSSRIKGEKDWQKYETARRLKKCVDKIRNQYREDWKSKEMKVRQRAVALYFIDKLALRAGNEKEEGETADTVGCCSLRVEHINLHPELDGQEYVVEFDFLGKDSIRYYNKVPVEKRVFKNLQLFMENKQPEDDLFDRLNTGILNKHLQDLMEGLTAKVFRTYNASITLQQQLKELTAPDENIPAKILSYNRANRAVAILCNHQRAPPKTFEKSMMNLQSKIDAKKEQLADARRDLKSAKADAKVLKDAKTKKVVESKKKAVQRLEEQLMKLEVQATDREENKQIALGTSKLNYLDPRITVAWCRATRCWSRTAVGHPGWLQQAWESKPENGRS
Experimental: In particular, a Topo I drug screening kit (TopoGEN, Inc., Columbus, Ohio) was used to assay the topoisomerase I THNLA-1 interaction. […] Camptothecin is a Topoisomerase I poison used as an anticancer drug. Camptothecin stabilizes the Topo I-DNA cleavable complex, and therefore prevents the resealing of DNA by Topo-I.
Individual reaction mixtures were heated for 30 minutes at 37° C. on a heating block, and then 2 μl of 10% SDS - proteinase K solution was added to each reaction mixture. The resulting reaction mixtures then were heated for an additional 30 minutes at 37° C. The reaction mixtures in a loading buffer were extracted with CHCl3 prior to submarine electrophoresis on a 1% agarose gel. The DNA bands were observed visually by staining with ethidium bromide (0.5 μg/ml).

supercoiled DNA = test: DNA intercalation by agarose gel electrophoresis (mobility of supercoiled DNA); type: binding; conditions: electrophoretic gel, up to millimolar concentrations
Text: An agarose gel electrophoresis technique was used to determine whether THNLA-1 intercalates DNA. Compounds that strongly intercalate DNA retard DNA mobility during agarose gel electrophoresis due to unwinding and extension of the dsDNA.

V79 cells = test: Chemosensitization to L-PAM or cis-DDP in V79 cells; type: cell-based, Chinese hamster; conditions: for chemosensitization to L-PAM or cis-DDP: V79 cells
Experimental: L-PAM, also known as phenylalanine mustard and available from Sigma Chem. Co., St. Louis, Mo., first was dissolved in an ethanolic solution of HCl (0.5N). The ethanolic HCl solution was buffered with propylene glycol in a 1:9 ratio of ethanolic HCl solution to propylene glycol, and finally diluted 100 fold with suspension medium. cis-DDP, a platinum-based chemotherapeutic agent available from Sigma Chem. Co., St. Louis, Mo., was dissolved in water to a predetermined concentration.
Experiments using a simultaneous addition of the sensitizer and chemotherapeutic agent for 1 hour at 37° C. under aerobic conditions were also performed.
In all experiments, controls for the hypoxic cytotoxicity of the sensitizer and the toxicity of the chemotherapeutic alone were included. Survival curves were normalized for the hypoxic cytotoxicity of sensitizer in order to determine the dose modification factor (DMF), i.e., the ratio of chemotherapeutic agent concentrations required to reduce cell survival to a predetermined level (e.g., 0.5) alone or in combination with a sensitizer. Synergism between the chemotherapeutic agent and the chemosensitizer was determined using the fractional product concept which is applied in instances of independent action of drugs, or by isobologramic analysis. The results of the chemosensitization studies are illustrated in FIGS. 12-15.

[4] = Cricetulus griseus, V79 cells, 1 hour, 37° C.

O=[N+]([O-])c1nccn1CCCNc1c2c(nc3ccccc13)CCSC2 [S-THNLA-1, 10-[3-(2-nitroimidazolyl)propylamino]-3,4-dihydro-1-H-thiopyrano[4,3-b]quinoline hydrochloride]
IC50 at 1 h [1]: 580 µM | IC50 [2, 4]: 68 µM | Hypoxic selectivity (differential aerobic/hypoxic toxicity): IC50/A,1h /IC50/H,1h ([2]; V79 cells, 1 hour, 37° C.): about 9 | Partition coefficient in octanol/water: PCo/w ([3]; hydrochloride): 0.41 and 0.40 | IC100 (calf thymus Topo I; read-out: concentration for complete inhibition of Topo I): ~800 µM | IC50 (calf thymus Topo I): ~800 µM | formation of nicked DNA with Topo I (calf thymus Topo I; in Topo I test): some nicked DNA also was observed | effect on mobility of supercoiled DNA (supercoiled DNA): do not affect the mobility of supercoiled DNA | chemosensitization to L-PAM or cis-DDP (V79 cells): strong chemosensitizers | solubility (Water solubility): ~9.5 mM

Cl.O=[N+]([O-])c1nccn1CCCNc1c2c(nc3ccccc13)CCCC2 [THNLA-1, 9-[3-(2-nitro-1-imidazolyl)propylamino]-1,2,3,4-tetrahydroacridine hydrochloride]
IC50 at 1 h [1]: ~360 µM | IC90 at 1 h ([1]; read-out: concentration to achieve a 10% survival fraction, aerobic): ~475 µM | IC50 [2, 4]: ~33 µM | IC90 ([2]; Cricetulus griseus, V79, hypoxic, 1 hour, 37° C., read-out: concentration to achieve a 10% survival fraction, hypoxic): ~100 µM | viability at 100 µM ([2]; V79, aerobic, read-out: survival fraction, aerobic): ~50% | viability at 100 µM ([2]; V79, hypoxic, read-out: survival fraction, hypoxic): < 0.002% | Partition coefficient in octanol/water: PCo/w [3]: 0.14 | logP ([3]; read-out: Partition coefficient in octanol/water: PCo/w (converted)): -0.854 | Topo I-dependent single-stranded DNA cleavage (calf thymus Topo I): not observed | IC100 (calf thymus Topo I; read-out: complete inhibition of Topo I not observed up to): > 1000 µM | IC50 (calf thymus Topo I): ~600 µM and 600 µM | inhibition of Topo I-induced relaxation (calf thymus Topo I; supercoiled DNA): inhibits Topo I-induced relaxation of supercoiled DNA, but at significantly higher concentrations than NLA-type compounds | concentration at which inhibition of Topo I starts (calf thymus Topo I; supercoiled DNA relaxation): 100 µM | effect on mobility of supercoiled DNA (supercoiled DNA): do not affect the mobility of supercoiled DNA | DMF value of L-PAM at 0.5 survival fraction (V79 cells; 10 μM THNLA-1, 2 hours hypoxic pretreatment, then L-PAM 1 hour aerobic): 3.2 | DMF value of cis-DDP at 0.5 survival fraction (V79 cells; 15 μM THNLA-1, 2 hours hypoxic pretreatment, then cis-DDP 1 hour aerobic): 4.2 | chemosensitization to L-PAM or cis-DDP (V79 cells; hydrochloride): powerful potentiator of chemotherapeutic agent toxicity; also recorded: strong chemosensitizers | potentiation of L-PAM or cis-DDP under aerobic conditions (V79 cells; aerobic exposure): no potentiation occurred | DMF compared with NLA-1 (V79 cells; cis-DDP or L-PAM combination, about 30% of the IC50/H,1h, hydrochloride): slightly greater than the DMF value obtained using a combination including NLA-1; also recorded: significantly more efficacious chemosensitizer than NLA-1 | interaction with L-PAM or cis-DDP (V79 cells; hypoxic pretreatment, isobologram and fractional product concept, hydrochloride): synergistic interaction; also recorded: dramatic decrease in survival fraction; also recorded: unexpected synergistic effect | solubility (Water solubility): ~12 mM
